Reference: PubChem BioAssay (NCI)
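Dose response: 5 concentrations. Exposure: 48 h. Format: 96-well plates. Endpoint: linear interpolation; highest concentration if not reached. At the GI50, growth is halved. At the TGI there is no net growth.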

Legend:
Test in all cases: NCI-60 cell line screen, 48 h; in the data active means GI50 below about 0.43 µM; inactive means the rest
NCI-H23 lung = test system: NCI-H23 lung
LOX IMVI melanoma = test system: LOX IMVI melanoma
CCRF-CEM leukemia = test system: CCRF-CEM leukemia
UO-31 renal = test system: UO-31 renal
UACC-257 melanoma = test system: UACC-257 melanoma
MDA-MB-435 = test system: MDA-MB-435
SNB-75 CNS = test system: SNB-75 CNS
A549 NSCLC = test system: A549 NSCLC
COLO 205 colon = test system: COLO 205 colon
NCI-H460 lung = test system: NCI-H460 lung
K-562 leukemia = test system: K-562 leukemia
HL-60(TB) leukemia = test system: HL-60(TB) leukemia
RXF 393 renal = test system: RXF 393 renal
OVCAR-8 ovarian = test system: OVCAR-8 ovarian
HCC-2998 colon = test system: HCC-2998 colon
MCF7 breast = test system: MCF7 breast
T-47D breast = test system: T-47D breast
HOP-62 NSCLC = test system: HOP-62 NSCLC
OVCAR-3 ovarian = test system: OVCAR-3 ovarian
NCI-H226 lung = test system: NCI-H226 lung
MDA-MB-231 breast = test system: MDA-MB-231 breast
HS 578T breast = test system: HS 578T breast
SF-295 CNS = test system: SF-295 CNS
HCT-116 colon = test system: HCT-116 colon
SK-OV-3 ovarian = test system: SK-OV-3 ovarian
KM12 colon = test system: KM12 colon
NCI/ADR-RES ovarian = test system: NCI/ADR-RES ovarian
SK-MEL-2 melanoma = test system: SK-MEL-2 melanoma
PC-3 prostate = test system: PC-3 prostate
OVCAR-5 ovarian = test system: OVCAR-5 ovarian
HT29 colon = test system: HT29 colon
MALME-3M melanoma = test system: MALME-3M melanoma
SF-268 CNS = test system: SF-268 CNS
SNB-19 CNS = test system: SNB-19 CNS
HOP-92 NSCLC = test system: HOP-92 NSCLC
OVCAR-4 ovarian = test system: OVCAR-4 ovarian
SK-MEL-5 melanoma = test system: SK-MEL-5 melanoma
786-0 renal = test system: 786-0 renal
IGROV1 ovarian = test system: IGROV1 ovarian
SW-620 colon = test system: SW-620 colon
SN12C renal = test system: SN12C renal
MOLT-4 leukemia = test system: MOLT-4 leukemia
ACHN renal = test system: ACHN renal
BT-549 breast = test system: BT-549 breast
SK-MEL-28 melanoma = test system: SK-MEL-28 melanoma
UACC-62 melanoma = test system: UACC-62 melanoma
SF-539 CNS = test system: SF-539 CNS
NCI-H522 lung = test system: NCI-H522 lung
CAKI-1 renal = test system: CAKI-1 renal
RPMI-8226 leukemia = test system: RPMI-8226 leukemia
SR leukemia = test system: SR leukemia
DU-145 prostate = test system: DU-145 prostate
A498 renal = test system: A498 renal
U251 CNS = test system: U251 CNS
TK-10 renal = test system: TK-10 renal
HCT-15 colon = test system: HCT-15 colon

O=c1c2c([nH]c3ccccc13)CCCC2
> 100 µM: TGI (NCI-H23 lung) | TGI (LOX IMVI melanoma) | TGI (CCRF-CEM leukemia) | TGI (UO-31 renal) | TGI (UACC-257 melanoma) | TGI (MDA-MB-435) | TGI (SNB-75 CNS) | TGI (A549 NSCLC) | TGI (COLO 205 colon) | TGI (NCI-H460 lung) | TGI (K-562 leukemia) | TGI (HL-60(TB) leukemia) | TGI (RXF 393 renal) | TGI (OVCAR-8 ovarian) | TGI (HCC-2998 colon) | TGI (MCF7 breast) | TGI (T-47D breast) | TGI (HOP-62 NSCLC) | TGI (OVCAR-3 ovarian) | TGI (NCI-H226 lung) | TGI (MDA-MB-231 breast) | TGI (HS 578T breast) | TGI (SF-295 CNS) | TGI (HCT-116 colon) | TGI (SK-OV-3 ovarian) | TGI (KM12 colon) | TGI (NCI/ADR-RES ovarian) | TGI (SK-MEL-2 melanoma) | TGI (PC-3 prostate) | TGI (OVCAR-5 ovarian) | TGI (HT29 colon) | TGI (MALME-3M melanoma) | TGI (SF-268 CNS) | TGI (SNB-19 CNS) | TGI (HOP-92 NSCLC) | TGI (OVCAR-4 ovarian) | TGI (SK-MEL-5 melanoma) | TGI (786-0 renal) | TGI (IGROV1 ovarian) | TGI (SW-620 colon) | TGI (SN12C renal) | TGI (MOLT-4 leukemia) | TGI (ACHN renal) | TGI (BT-549 breast) | TGI (SK-MEL-28 melanoma) | TGI (UACC-62 melanoma) | TGI (SF-539 CNS) | TGI (NCI-H522 lung) | TGI (CAKI-1 renal) | TGI (RPMI-8226 leukemia) | TGI (SR leukemia) | TGI (DU-145 prostate) | TGI (U251 CNS) | TGI (TK-10 renal) | TGI (HCT-15 colon)
55.8 µM: TGI (A498 renal)
inactive: GI50 (NCI-H23 lung) > 100 µM | GI50 (LOX IMVI melanoma) > 100 µM | GI50 (CCRF-CEM leukemia) > 100 µM | GI50 (UO-31 renal) 49.7 µM | GI50 (UACC-257 melanoma) > 100 µM | GI50 (MDA-MB-435) > 100 µM | GI50 (SNB-75 CNS) > 100 µM | GI50 (A549 NSCLC) > 100 µM | GI50 (COLO 205 colon) > 100 µM | GI50 (NCI-H460 lung) > 100 µM | GI50 (K-562 leukemia) > 100 µM | GI50 (HL-60(TB) leukemia) > 100 µM | GI50 (RXF 393 renal) > 100 µM | GI50 (OVCAR-8 ovarian) > 100 µM | GI50 (HCC-2998 colon) > 100 µM | GI50 (MCF7 breast) > 100 µM | GI50 (T-47D breast) > 100 µM | GI50 (HOP-62 NSCLC) > 100 µM | GI50 (OVCAR-3 ovarian) > 100 µM | GI50 (NCI-H226 lung) > 100 µM | GI50 (MDA-MB-231 breast) > 100 µM | GI50 (HS 578T breast) > 100 µM | GI50 (SF-295 CNS) > 100 µM | GI50 (HCT-116 colon) > 100 µM | GI50 (SK-OV-3 ovarian) > 100 µM | GI50 (KM12 colon) > 100 µM | GI50 (NCI/ADR-RES ovarian) > 100 µM | GI50 (SK-MEL-2 melanoma) 60.4 µM | GI50 (PC-3 prostate) > 100 µM | GI50 (OVCAR-5 ovarian) > 100 µM | GI50 (HT29 colon) > 100 µM | GI50 (MALME-3M melanoma) > 100 µM | GI50 (SF-268 CNS) > 100 µM | GI50 (SNB-19 CNS) > 100 µM | GI50 (HOP-92 NSCLC) 78.4 µM | GI50 (OVCAR-4 ovarian) 37 µM | GI50 (SK-MEL-5 melanoma) 45.3 µM | GI50 (786-0 renal) > 100 µM | GI50 (IGROV1 ovarian) > 100 µM | GI50 (SW-620 colon) > 100 µM | GI50 (SN12C renal) > 100 µM | GI50 (MOLT-4 leukemia) > 100 µM | GI50 (ACHN renal) > 100 µM | GI50 (BT-549 breast) > 100 µM | GI50 (SK-MEL-28 melanoma) > 100 µM | GI50 (UACC-62 melanoma) > 100 µM | GI50 (SF-539 CNS) > 100 µM | GI50 (NCI-H522 lung) > 100 µM | GI50 (CAKI-1 renal) > 100 µM | GI50 (RPMI-8226 leukemia) 81.5 µM | GI50 (SR leukemia) > 100 µM | GI50 (DU-145 prostate) > 100 µM | GI50 (A498 renal) 1.74 µM | GI50 (U251 CNS) > 100 µM | GI50 (TK-10 renal) > 100 µM | GI50 (HCT-15 colon) > 100 µM
